Data as given in ChEMBL document CHEMBL5257143, “Discovery of First-in-Class Small Molecule Inhibitors of Lymphocyte Activation Gene 3 (LAG-3)” (ACS Med Chem Lett, 2023).

What was measured:
[1] = Inhibition of LAG-3-MHCII (unknown origin) interaction incubated for 2 hrs by TR-FRET assay; design: species or system Homo sapiens
[2] = Inhibition of LAG-3/FGL1 (unknown origin) interaction incubated for 2 hrs by TR-FRET assay; design: species or system Homo sapiens
Homo sapiens = species: Homo sapiens; experiment: Inhibition of LAG-3-MHCII (unknown origin) interaction at 10 to 30 uM incubated for 2 hrs by TR-FRET assay relative to control; settings: dose 10-30 µM
[3] = Inhibition of LAG-3/FGL1 (unknown origin) interaction by ELISA analysis; design: species or system Homo sapiens
[4] = (§1) Inhibition of LAG-3-MHCII interaction in human Jurkat T cells expressing human LAG-3/luciferase reporter co-cultured with MHCII antigen presenting cells assessed as increase in luminescence by Bio-Glo reagent based assay; format: cell-based
Jurkat T = experiment: as §1; format: cell-based

IC50 [1] [µM] | IC50 [2] [µM] | inhibition (Homo sapiens) [%] | IC50 [3] [µM] | IC50 [4] [µM] | SMILES | inhibition (Jurkat T)
> 50 | > 50 |  |  |  | CCCn1c(C)cc(C(=O)COc2ccccc2NC(C)=O)c1C | 
18.4 | 14.2 |  |  |  | Cc1cc(C(=O)COc2ccccc2C(=O)Nc2ccccc2)c(C)n1CC1CCCO1 (stereo not drawn) | 
> 50 | > 50 |  |  |  | Cc1cc(C(=O)COc2ccccc2C(=O)Nc2ccccc2)c(C)[nH]1 | 
23.4 | 28.5 |  |  |  | CC(=O)Nc1ccc(OCC(=O)c2cc(C)n(CCc3ccccc3)c2C)cc1 | 
8.36 | 13.7 |  |  |  | Cc1cc(C(=O)COc2ccc(NC(=O)c3ccco3)cc2)c(C)n1-c1ccccc1 | 
28.4 | 32.7 |  |  |  | CC(=O)Nc1ccccc1OCC(=O)c1cc(C)n(CCc2ccc(F)cc2)c1C | 
9.38 | 9.94 |  |  |  | Cc1cc(C(=O)COc2ccc(NC(=O)c3ccccc3)cc2)c(C)n1Cc1ccco1 | 
18.3 | 20.4 |  |  |  | CC(=O)Nc1ccc(OCC(=O)c2cc(C)n(Cc3ccccc3)c2C)cc1 | 
25.7 | 35.4 |  |  |  | COc1ccccc1C(=O)Nc1ccc(OCC(=O)c2cc(C)n(C)c2C)cc1 | 
> 50 | > 50 |  |  |  | C=CCn1c(C)cc(C(=O)COc2ccccc2C(=O)Nc2ccccc2)c1C | 
4.21 | 6.52 |  |  | 6.95 | Cc1cc(C(=O)COc2ccc(NC(=O)c3ccco3)cc2)c(C)n1Cc1ccccc1 | Dose-Dependent Effect

The next lines start with the compound.

SMILES | IC50 [1] [µM] | IC50 [2] [µM] | inhibition (Homo sapiens) [%] | IC50 [3] [µM] | IC50 [4] [µM] | inhibition (Jurkat T)
Cc1ccc(-n2c(C)cc(C(=O)COc3ccc(NC(=O)c4ccc(C(C)(C)C)cc4)cc3)c2C)cc1 | 19.3 | 18.2 |  |  |  | 
CCC(=O)c1ccc(OCC(=O)c2cc(C)n(Cc3ccco3)c2C)cc1 | 20.4 | 28.7 |  |  |  | 
COCCCn1c(C)cc(C(=O)COc2ccc(NC(C)=O)cc2)c1C | > 50 | > 50 |  |  |  | 
CC(=O)Nc1ccc(OCC(=O)c2cc(C)n(CCc3ccc(F)cc3)c2C)cc1 | 28.4 | 21.4 |  |  |  | 
CC(=O)Nc1ccc(OCC(=O)c2cc(C)n(-c3ccc(Cl)c(Cl)c3)c2C)cc1 | 11.2 | 10.3 |  |  |  | 
Cc1cc(C(=O)COc2ccc(N3CCCC3=O)cc2)c(C)n1C1CC1 | 17.2 | 20.4 |  |  |  | 
CC(=O)Nc1ccc(OCC(=O)c2cc(C)n(-c3ccc(OC(F)F)cc3)c2C)cc1 | 12.4 | 16.5 |  |  |  | 
Cc1cc(C(=O)COc2ccc(C(N)=O)cc2)c(C)n1C | > 50 | > 50 |  |  |  | 
C=CCn1c(C)cc(C(=O)COc2ccc(NC(=O)c3cccc([N+](=O)[O-])c3)cc2)c1C | > 50 | > 50 |  |  |  | 
CCCn1c(C)cc(C(=O)COc2ccc(NC(C)=O)cc2)c1C | > 50 | > 50 |  |  |  | 
CC(=O)Nc1ccc(OCC(=O)c2cc(C)n(C(C)C)c2C)cc1 | > 50 | > 50 |  |  |  | 
Cc1cc(C(=O)COc2ccc(NC(=O)c3ccco3)cc2)c(C)n1C | 14.8 | 16.7 | > 90 | 18.5 |  | 
Cc1ccc(-n2c(C)cc(C(=O)COc3ccc(C(N)=O)cc3)c2C)cc1 | 26.9 | 29.4 |  |  |  | 
CC(=O)Nc1ccc(OCC(=O)c2cc(C)n(-c3ccccc3F)c2C)cc1 | 21.3 | 29.4 |  |  |  | 
Cc1cc(C(=O)COc2ccc(C(N)=O)cc2)c(C)n1CCc1ccc(F)cc1 | 18.3 | 22.4 |  |  |  | 
CC(=O)Nc1cccc(OCC(=O)c2cc(C)n(-c3ccc(C)c(C)c3)c2C)c1 | 31.4 | 25.5 |  |  |  | 
